Assay results published in patent publication US10738028B2, “Spiro three-membered ring, spiro five-membered ring peptide deformylase inhibitor and use thereof in antibacteria and anti-tumor” (priority 2016, dated 2020).

Assays:
Format in all cases: cell-based
[1] = test system: Enterococcus faecalis (EFA); test: MIC, two-fold agar dilution (CLSI), clinical isolates
Summary of the method: (§1)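 Test samples were assayed by the CLSI-recommended two-fold agar dilution method, and the minimum inhibitory concentration against each tested strain was determined.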

[2] = test system: Enterococcus faecium (EFM); test: as above
Summary of the method: as §1

[3] = test system: Escherichia coli (including ESBLs, non-ESBLs); test: as above
Summary of the method: as §1

[4] = test system: Moraxella catarrhalis (BCA); test: as above
Summary of the method: as §1

[5] = test system: Streptococcus pneoumoniae (SPN); test: as above
Summary of the method: as §1

[6] = test system: methicillin-resistant Staphylococcus aureus (MRSA); test: as above
Summary of the method: as §1

[7] = test system: methicillin-resistant Staphylococcus epidermidis (MRSE); test: as above
Summary of the method: as §1

[8] = test system: methicillin-sensitive Staphylococcus aureus (MSSA); test: as above
Summary of the method: as §1

[9] = test system: methicillin-sensitive Staphylococcus epidermidis (MSSE); test: as above
Summary of the method: as §1

[10] = test system: HCT-116 colorectal cancer cell line; test: CCK-8 proliferation inhibition; settings: concentration of 30 μM, 72 hours, CCK-8
Summary of the method: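 Cells were plated overnight at 2000 cells/well, then compound in culture medium was added at a range of final concentrations. After 72 hours in a CO2 incubator, medium was replaced with 1:10 CCK-8 solution for the read-out.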

[11] = test system: A549 lung cancer cell line; test: CCK-8 proliferation inhibition; settings: concentration of 30 μM
Summary of the method: (§2)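 Plating at 2000 cells/well, then incubation overnight at 37° C. Next, a range of compound concentrations for 72 hours (control 1‰ DMSO). Finally, medium decanted and CCK-8 diluted 1:10 added.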

[12] = test system: BEL-7402 liver cancer cell line; test: CCK-8 proliferation inhibition; settings: concentration of 30 μM
Summary of the method: as §2

[13] = test system: MGC-803 gastric cancer cell line; test: CCK-8 proliferation inhibition; settings: Homo sapiens, MGC-803, 72 h, concentration of 30 μM
Summary of the method: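 Proliferation was measured with 1:10 diluted CCK-8 after a 72-hour incubation with the inhibitors at various final concentrations, using 1‰ DMSO as the control. Cells were plated at 2000 per well. Culture media contained 10% newborn bovine serum: 1640 for Jurkat and MGC-803, F12 for PC3, DMEM high glucose for MCF-7.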

Structure (SMILES): O=C(C[C@@H](CC1CCCC1)C(=O)N1CC2(CC2)C[C@H]1C(=O)Nc1ccno1)NO [Example 70, (S)-5-((R)-2-(cyclopentylmethyl)-4-(hydroxyamino)-4-oxobutyl)-N-(isoxazol-5-yl)-5-spiro[2.4]heptane-6-carboxamide]
- Anti-bacterial activity (MIC) ([1]; strain EFA 15-1): 32 µg/mL
- Anti-bacterial activity (MIC) ([1]; strain EFA 15-2): 32 µg/mL
- Anti-bacterial activity (MIC) ([1]; strain EFA 15-3): 32 µg/mL
- Anti-bacterial activity (MIC) ([1]; strain EFA 15-4): 32 µg/mL
- Anti-bacterial activity (MIC) ([1]; strain EFA 15-5): 32 µg/mL
- Anti-bacterial activity (MIC) ([1]; strain EFA 15-6): 32 µg/mL
- Anti-bacterial activity (MIC) ([1]; strain EFA 15-9): 1 µg/mL
- Anti-bacterial activity (MIC) ([2]; strain EFM 15-1): 32 µg/mL
- Anti-bacterial activity (MIC) ([2]; strain EFM 15-2): 32 µg/mL
- Anti-bacterial activity (MIC) ([2]; strain EFM 15-3): 32 µg/mL
- Anti-bacterial activity (MIC) ([2]; strain EFM 15-4): 1 µg/mL
- Anti-bacterial activity (MIC) ([2]; strain EFM 15-5): 0.2 µg/mL
- Anti-bacterial activity (MIC) ([2]; strain EFM 15-6): 2 µg/mL
- Anti-bacterial activity (MIC), strain ECO+ 15-1 ([3]; clinical isolate ECO+ 15-1): 16 µg/mL
- Anti-bacterial activity (MIC), strain ECO+ 15-2 ([3]; clinical isolate ECO+ 15-2): 32 µg/mL
- Anti-bacterial activity (MIC), strain ECO+ 15-3 ([3]; clinical isolate ECO+ 15-3): 32 µg/mL
- Anti-bacterial activity (MIC), strain ECO+ 15-4 ([3]; clinical isolate ECO+ 15-4): 16 µg/mL
- Anti-bacterial activity (MIC), strain ECO− 15-1 ([3]; clinical isolate ECO− 15-1): 16 µg/mL
- Anti-bacterial activity (MIC), strain ECO− 15-2 ([3]; clinical isolate ECO− 15-2): 32 µg/mL
- Anti-bacterial activity (MIC), strain ECO− 15-3 ([3]; clinical isolate ECO− 15-3): 32 µg/mL
- Anti-bacterial activity (MIC), strain ECO− 15-4 ([3]; clinical isolate ECO− 15-4): 16 µg/mL
- Anti-bacterial activity (MIC) ([4]; strain BCA 14-1): 1 µg/mL
- Anti-bacterial activity (MIC) ([4]; strain BCA 14-4): 2 µg/mL
- Anti-bacterial activity (MIC) ([4]; strain BCA 14-5): 2 µg/mL
- Anti-bacterial activity (MIC) ([4]; strain BCA 14-6): 2 µg/mL
- Anti-bacterial activity (MIC) ([4]; strain BCA 14-7): 4 µg/mL
- Anti-bacterial activity (MIC) ([4]; strain BCA 14-8): 1 µg/mL
- Anti-bacterial activity (MIC) ([4]; strain BCA 14-10): 1 µg/mL
- Anti-bacterial activity (MIC) ([5]; strain SPN 16-2): 0.5 µg/mL
- Anti-bacterial activity (MIC) ([5]; strain SPN 16-4): 0.25 µg/mL
- Anti-bacterial activity (MIC), strain MRSA 15-1 ([6]; clinical isolate MRSA 15-1): 0.5 µg/mL
- Anti-bacterial activity (MIC), strain MRSA 15-2 ([6]; clinical isolate MRSA 15-2): 1 µg/mL
- Anti-bacterial activity (MIC), strain MRSA 15-3 ([6]; clinical isolate MRSA 15-3): 0.5 µg/mL
- Anti-bacterial activity (MIC), strain MRSA 15-4 ([6]; clinical isolate MRSA 15-4): 1 µg/mL
- Anti-bacterial activity (MIC), strain MRSE 15-1 ([7]; clinical isolate MRSE 15-1): 0.5 µg/mL
- Anti-bacterial activity (MIC), strain MRSE 15-2 ([7]; clinical isolate MRSE 15-2): 2 µg/mL
- Anti-bacterial activity (MIC), strain MRSE 15-3 ([7]; clinical isolate MRSE 15-3): 2 µg/mL
- Anti-bacterial activity (MIC), strain MRSE 15-7 ([7]; clinical isolate MRSE 15-7): 2 µg/mL
- Anti-bacterial activity (MIC), strain MSSA 15-3 ([8]; clinical isolate MSSA 15-3): 2 µg/mL
- Anti-bacterial activity (MIC), strain MSSA 15-4 ([8]; clinical isolate MSSA 15-4): 0.5 µg/mL
- Anti-bacterial activity (MIC), strain MSSA 15-5 ([8]; clinical isolate MSSA 15-5): 0.25 µg/mL
- Anti-bacterial activity (MIC), strain MSSA 15-6 ([8]; clinical isolate MSSA 15-6): 16 µg/mL
- Anti-bacterial activity (MIC), strain MSSE 15-3 ([9]; clinical isolate MSSE 15-3): 0.5 µg/mL
- Anti-bacterial activity (MIC), strain MSSE 15-4 ([9]; clinical isolate MSSE 15-4): 1 µg/mL
- Anti-bacterial activity (MIC), strain MSSE 15-5 ([9]; clinical isolate MSSE 15-5): 1 µg/mL
- Anti-bacterial activity (MIC), strain MSSE 15-6 ([9]; clinical isolate MSSE 15-6): 0.25 µg/mL
- inhibition at 30 µM ([10]; Homo sapiens, HCT-116, 72 h, read-out: HCT116 inhibition rate/%): > 50%
- HCT116 inhibition rate/% ([10]; 30 µM): 64%
- inhibition at 30 µM ([11]; Homo sapiens, A549, 72 h): > 50%
- Inhibition of proliferation, Lung cancer A549 ([11]; 72 hours, 30 µM): 54%
- inhibition at 30 µM ([12]; Homo sapiens, Bel-7402, 72 h): > 50%
- Inhibition of proliferation, Liver cancer BEL-7402 ([12]; 72 hours, 30 µM): 62%
- inhibition at 30 µM [13]: 50%
